One assay has as its system Staphylococcus aureus. Description: Antibacterial activity against Staphylococcus aureus ATCC 49775 assessed as bacterial growth inhibition measured after 16 to 20 hrs by CLSI protocol based broth microdilution method. It counts as functional.
Another assay has as its system Escherichia coli. The assay is described as follows: Antibacterial activity against Escherichia coli K-12 assessed as bacterial growth inhibition measured after 16 to 20 hrs by CLSI protocol based broth microdilution method. It is filed as functional. (Broth dilution looks for growth in wells or tubes with falling amounts of substance.)

Values after ≈ are worked out from the molar mass of the structure shown.

By MIC is commonly meant the lowest concentration found to suppress growth. For the compound `CCCCCCCCN(Cc1c2ccccc2c(Cl)c2ccccc12)C(=O)C(CCCCNC(=O)OCc1ccc([N+](=O)[O-])cc1)NC(=O)OCc1ccc([N+](=O)[O-])cc1` (centres undefined), the MIC in the assay on Staphylococcus aureus and in the assay on Escherichia coli was more than 256 µg/mL in each case.
As to `CCCCCCCCN(Cc1c2ccccc2c(Cl)c2ccccc12)C(=O)C(N)CCCCN` (centres undefined), the MIC in the assay on Staphylococcus aureus was found to be 2 µg/mL (≈ 4.15 µM); with Escherichia coli, 4 µg/mL (≈ 8.3 µM).

Source of the values: ChEMBL document CHEMBL4627358, “A hypoxia-activated antibacterial prodrug” (Bioorg Med Chem Lett, 2020).
